Source: paper PMC9506414, “Novel 2,6,9-Trisubstituted Purines as Potent CDK Inhibitors Alleviating Trastuzumab-Resistance of HER2-Positive Breast Cancers” (Pharmaceuticals, 2022)

Experiments:
Assay in all cases: Kinome-wide inhibition profiling
Type in all cases: biochemical
[1] = molecular target: T1, HIPK3 (Homo sapiens, UniProt Q9H422)
T1 construct: purchased Reaction Biology Corp
Protocol: (§1) In vitro CDK12/cyclinK assays for all compounds and in vitro kinome-wide inhibition profiling of 30d at 10 μM were performed by a CRO company (Reaction Biology Corp., San Diego, CA, USA).

[2] = molecular target: T2, P38-gamma (Homo sapiens, UniProt P53778)
T2 construct: purchased Reaction Biology Corp
Protocol: as §1

[3] = molecular target: T3, IRAK4 (Homo sapiens, UniProt Q9NWZ3)
T3 construct: purchased Reaction Biology Corp
Protocol: as §1

[4] = molecular target: T4, P38-alpha (Homo sapiens, UniProt Q16539)
T4 construct: purchased Reaction Biology Corp
Protocol: as §1

[5] = molecular target: T5, WNK1 (Homo sapiens, UniProt Q9H4A3)
T5 construct: purchased Reaction Biology Corp
Protocol: as §1

[6] = molecular target: T6, CDK9/cyclinT1 (Homo sapiens, UniProt P50750)
T6 construct: purchased Reaction Biology Corp
T6 sequence (P50750 whole entry): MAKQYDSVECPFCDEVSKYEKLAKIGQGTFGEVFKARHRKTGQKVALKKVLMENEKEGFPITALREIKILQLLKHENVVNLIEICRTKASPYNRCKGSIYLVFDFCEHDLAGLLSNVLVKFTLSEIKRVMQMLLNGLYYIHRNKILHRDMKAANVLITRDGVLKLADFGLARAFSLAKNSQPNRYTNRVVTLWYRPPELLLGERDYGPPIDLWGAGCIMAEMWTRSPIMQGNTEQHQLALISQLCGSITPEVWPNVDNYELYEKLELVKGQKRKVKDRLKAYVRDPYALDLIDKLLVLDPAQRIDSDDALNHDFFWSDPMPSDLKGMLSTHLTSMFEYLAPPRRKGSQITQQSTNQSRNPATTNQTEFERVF
T6 sequence (O60563 whole entry partner): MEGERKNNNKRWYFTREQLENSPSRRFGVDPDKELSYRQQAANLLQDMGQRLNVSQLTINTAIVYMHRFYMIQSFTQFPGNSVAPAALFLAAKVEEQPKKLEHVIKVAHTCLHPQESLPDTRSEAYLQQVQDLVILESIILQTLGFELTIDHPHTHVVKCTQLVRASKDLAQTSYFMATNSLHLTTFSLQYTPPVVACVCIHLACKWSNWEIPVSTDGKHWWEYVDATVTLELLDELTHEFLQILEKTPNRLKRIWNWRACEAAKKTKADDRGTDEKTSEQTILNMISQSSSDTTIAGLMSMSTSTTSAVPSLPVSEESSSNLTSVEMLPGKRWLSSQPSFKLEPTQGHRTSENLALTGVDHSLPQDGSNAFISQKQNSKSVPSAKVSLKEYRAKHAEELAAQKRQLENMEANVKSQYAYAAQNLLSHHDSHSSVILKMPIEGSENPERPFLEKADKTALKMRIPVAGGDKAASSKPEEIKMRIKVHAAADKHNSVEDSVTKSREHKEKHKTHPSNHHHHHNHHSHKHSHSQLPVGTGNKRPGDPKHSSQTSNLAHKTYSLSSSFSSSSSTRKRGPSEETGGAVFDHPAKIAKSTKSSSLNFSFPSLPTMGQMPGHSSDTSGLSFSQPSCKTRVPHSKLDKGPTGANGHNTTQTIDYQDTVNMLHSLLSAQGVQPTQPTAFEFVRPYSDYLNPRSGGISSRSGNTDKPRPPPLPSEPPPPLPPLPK
Protocol: as §1

[7] = molecular target: T7, PRKX (Homo sapiens, UniProt P51817)
T7 construct: purchased Reaction Biology Corp
Protocol: as §1

[8] = molecular target: T8, MINK (Homo sapiens, UniProt Q8N4C8)
T8 construct: purchased Reaction Biology Corp
Protocol: as §1

[9] = molecular target: T9, TBK1 (Homo sapiens, UniProt Q9UHD2)
T9 construct: purchased Reaction Biology Corp
Protocol: as §1

[10] = molecular target: T10, AXL (Homo sapiens, UniProt P30530)
T10 construct: purchased Reaction Biology Corp
Protocol: as §1

[11] = molecular target: T11, YANK2 (Homo sapiens, UniProt Q9NY57)
T11 construct: purchased Reaction Biology Corp
Protocol: as §1

[12] = molecular target: T12, GRK1 (Homo sapiens, UniProt Q15835)
T12 construct: purchased Reaction Biology Corp
Protocol: as §1

[13] = molecular target: T13, Kit (Homo sapiens, UniProt P10721)
T13 construct: purchased Reaction Biology Corp
Protocol: as §1

[14] = molecular target: T14, MEK2 (Homo sapiens, UniProt P36507)
T14 construct: purchased Reaction Biology Corp
Protocol: as §1

[15] = molecular target: T15, NLK (Homo sapiens, UniProt Q9UBE8)
T15 construct: purchased Reaction Biology Corp
Protocol: as §1

[16] = molecular target: T16, VRK2 (Homo sapiens, UniProt Q86Y07)
T16 construct: purchased Reaction Biology Corp
Protocol: as §1

[17] = molecular target: T17, SRMS (Homo sapiens, UniProt Q9H3Y6)
T17 construct: purchased Reaction Biology Corp
Protocol: as §1

[18] = molecular target: T18, NEK5 (Homo sapiens, UniProt Q6P3R8)
T18 construct: purchased Reaction Biology Corp
Protocol: as §1

[19] = molecular target: T19, KSR1 (Homo sapiens, UniProt Q8IVT5)
T19 construct: purchased Reaction Biology Corp
T19 sequence (Q8IVT5 whole entry): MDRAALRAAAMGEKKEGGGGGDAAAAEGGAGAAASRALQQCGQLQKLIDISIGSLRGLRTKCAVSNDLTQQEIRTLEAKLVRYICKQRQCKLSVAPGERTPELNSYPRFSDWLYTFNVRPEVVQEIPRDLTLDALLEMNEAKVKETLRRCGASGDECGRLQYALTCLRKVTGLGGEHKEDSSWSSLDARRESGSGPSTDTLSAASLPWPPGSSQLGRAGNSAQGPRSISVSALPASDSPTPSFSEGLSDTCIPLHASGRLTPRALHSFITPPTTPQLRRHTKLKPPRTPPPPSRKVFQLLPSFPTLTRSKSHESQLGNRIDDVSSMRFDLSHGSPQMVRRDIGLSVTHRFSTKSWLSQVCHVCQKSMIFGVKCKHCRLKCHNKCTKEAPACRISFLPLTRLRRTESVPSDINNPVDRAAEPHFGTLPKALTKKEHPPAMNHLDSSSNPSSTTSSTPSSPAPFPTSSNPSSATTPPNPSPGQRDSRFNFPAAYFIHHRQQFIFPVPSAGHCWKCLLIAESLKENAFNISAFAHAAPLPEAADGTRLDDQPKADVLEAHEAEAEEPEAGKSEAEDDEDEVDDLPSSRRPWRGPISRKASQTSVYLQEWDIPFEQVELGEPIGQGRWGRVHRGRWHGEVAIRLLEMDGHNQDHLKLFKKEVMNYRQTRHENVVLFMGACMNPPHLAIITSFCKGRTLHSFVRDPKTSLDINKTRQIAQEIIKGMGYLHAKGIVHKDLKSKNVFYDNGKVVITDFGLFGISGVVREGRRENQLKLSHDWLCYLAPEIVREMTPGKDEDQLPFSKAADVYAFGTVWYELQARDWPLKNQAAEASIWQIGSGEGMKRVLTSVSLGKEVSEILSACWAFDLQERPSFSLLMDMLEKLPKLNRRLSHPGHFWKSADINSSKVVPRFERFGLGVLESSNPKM
Protocol: as §1

[20] = molecular target: T20, MLK2 (Homo sapiens, UniProt Q02779)
T20 construct: purchased Reaction Biology Corp
T20 sequence (Q02779 whole entry): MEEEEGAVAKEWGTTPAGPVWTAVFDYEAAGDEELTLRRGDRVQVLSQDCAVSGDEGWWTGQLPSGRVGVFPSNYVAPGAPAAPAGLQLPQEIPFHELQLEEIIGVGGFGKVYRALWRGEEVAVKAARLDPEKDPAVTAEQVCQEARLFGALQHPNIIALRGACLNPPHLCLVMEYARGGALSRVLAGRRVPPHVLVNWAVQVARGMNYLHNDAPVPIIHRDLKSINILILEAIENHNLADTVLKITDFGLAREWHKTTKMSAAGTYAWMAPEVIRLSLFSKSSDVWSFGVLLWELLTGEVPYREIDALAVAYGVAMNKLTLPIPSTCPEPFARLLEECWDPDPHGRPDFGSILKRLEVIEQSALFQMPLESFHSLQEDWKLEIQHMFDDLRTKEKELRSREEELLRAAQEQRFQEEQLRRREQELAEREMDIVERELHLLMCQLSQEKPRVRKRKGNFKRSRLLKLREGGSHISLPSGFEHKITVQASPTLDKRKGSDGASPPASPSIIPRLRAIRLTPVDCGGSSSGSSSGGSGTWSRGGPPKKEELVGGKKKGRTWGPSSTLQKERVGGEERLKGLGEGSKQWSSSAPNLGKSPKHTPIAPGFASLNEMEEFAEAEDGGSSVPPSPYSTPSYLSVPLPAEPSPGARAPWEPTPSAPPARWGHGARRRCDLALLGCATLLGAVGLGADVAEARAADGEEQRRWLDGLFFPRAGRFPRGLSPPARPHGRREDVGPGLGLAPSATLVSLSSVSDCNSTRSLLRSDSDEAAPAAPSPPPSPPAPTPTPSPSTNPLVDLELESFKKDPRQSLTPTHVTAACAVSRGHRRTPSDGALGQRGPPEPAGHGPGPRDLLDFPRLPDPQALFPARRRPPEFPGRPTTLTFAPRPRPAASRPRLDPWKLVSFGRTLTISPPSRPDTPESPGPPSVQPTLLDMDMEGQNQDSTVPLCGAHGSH
Protocol: as §1

[21] = molecular target: T21, EPHB3 (Homo sapiens, UniProt P54753)
T21 construct: purchased Reaction Biology Corp
Protocol: as §1

[22] = molecular target: T22, YANK3 (Homo sapiens, UniProt Q86UX6)
T22 construct: purchased Reaction Biology Corp
T22 sequence (Q86UX6 whole entry): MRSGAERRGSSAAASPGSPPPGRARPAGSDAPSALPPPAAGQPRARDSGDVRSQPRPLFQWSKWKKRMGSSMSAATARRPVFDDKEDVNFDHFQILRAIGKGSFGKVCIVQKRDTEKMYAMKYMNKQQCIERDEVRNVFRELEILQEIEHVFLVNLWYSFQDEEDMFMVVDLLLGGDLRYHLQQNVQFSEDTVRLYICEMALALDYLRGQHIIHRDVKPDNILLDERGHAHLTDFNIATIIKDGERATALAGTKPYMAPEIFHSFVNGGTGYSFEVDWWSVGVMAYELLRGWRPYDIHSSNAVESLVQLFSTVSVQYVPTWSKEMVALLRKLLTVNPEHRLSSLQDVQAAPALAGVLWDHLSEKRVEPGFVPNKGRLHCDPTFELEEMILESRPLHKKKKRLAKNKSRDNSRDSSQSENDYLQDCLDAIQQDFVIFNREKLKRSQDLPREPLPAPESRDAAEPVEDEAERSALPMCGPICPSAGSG
Protocol: as §1

[23] = molecular target: T23, RSK2 (Homo sapiens, UniProt P51812)
T23 construct: purchased Reaction Biology Corp
Protocol: as §1

[24] = molecular target: T24, MAPKAPK2 (Homo sapiens, UniProt P49137)
T24 construct: purchased Reaction Biology Corp
Protocol: as §1

[25] = molecular target: T25, TXK (Homo sapiens, UniProt P42681)
T25 construct: purchased Reaction Biology Corp
Protocol: as §1

[26] = molecular target: T26, PKN3 (Homo sapiens, UniProt Q6P5Z2)
T26 construct: purchased Reaction Biology Corp
Protocol: as §1

[27] = molecular target: T27, BMPR2 (Homo sapiens, UniProt Q13873)
T27 construct: purchased Reaction Biology Corp
Protocol: as §1

[28] = molecular target: T28, TIE2 (Homo sapiens, UniProt Q02763)
T28 construct: purchased Reaction Biology Corp
Protocol: as §1

[29] = molecular target: T29, PRKD1 (Homo sapiens, UniProt Q15139)
T29 construct: purchased Reaction Biology Corp
Protocol: as §1

[30] = molecular target: T30, CIT (Homo sapiens, UniProt O14578)
T30 construct: purchased Reaction Biology Corp
Protocol: as §1

[31] = molecular target: T31, CSNK1G1 (Homo sapiens, UniProt Q9HCP0)
T31 construct: purchased Reaction Biology Corp
Protocol: as §1

[32] = molecular target: T32, GRK2 (Homo sapiens, UniProt P25098)
T32 construct: purchased Reaction Biology Corp
Protocol: as §1

[33] = molecular target: T33, GSK3a (Homo sapiens, UniProt P49840)
T33 construct: purchased Reaction Biology Corp
Protocol: as §1

[34] = molecular target: T34, P38-delta (Homo sapiens, UniProt O15264)
T34 construct: purchased Reaction Biology Corp
Protocol: as §1

[35] = molecular target: T35, MYLK4 (Homo sapiens, UniProt Q86YV6)
T35 construct: purchased Reaction Biology Corp
T35 sequence (Q86YV6 whole entry): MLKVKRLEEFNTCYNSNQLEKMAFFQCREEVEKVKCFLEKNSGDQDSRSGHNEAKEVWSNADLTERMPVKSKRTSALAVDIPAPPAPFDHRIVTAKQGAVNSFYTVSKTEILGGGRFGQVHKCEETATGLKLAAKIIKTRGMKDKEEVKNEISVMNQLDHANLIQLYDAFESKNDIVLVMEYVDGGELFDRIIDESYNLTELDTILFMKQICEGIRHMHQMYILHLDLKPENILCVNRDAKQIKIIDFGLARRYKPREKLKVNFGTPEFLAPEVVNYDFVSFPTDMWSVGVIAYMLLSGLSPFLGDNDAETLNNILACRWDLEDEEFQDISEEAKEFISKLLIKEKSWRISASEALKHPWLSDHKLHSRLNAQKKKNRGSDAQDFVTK
Protocol: as §1

[36] = molecular target: T36, CAMK1d (Homo sapiens, UniProt Q8IU85)
T36 construct: purchased Reaction Biology Corp
T36 sequence (Q8IU85 whole entry): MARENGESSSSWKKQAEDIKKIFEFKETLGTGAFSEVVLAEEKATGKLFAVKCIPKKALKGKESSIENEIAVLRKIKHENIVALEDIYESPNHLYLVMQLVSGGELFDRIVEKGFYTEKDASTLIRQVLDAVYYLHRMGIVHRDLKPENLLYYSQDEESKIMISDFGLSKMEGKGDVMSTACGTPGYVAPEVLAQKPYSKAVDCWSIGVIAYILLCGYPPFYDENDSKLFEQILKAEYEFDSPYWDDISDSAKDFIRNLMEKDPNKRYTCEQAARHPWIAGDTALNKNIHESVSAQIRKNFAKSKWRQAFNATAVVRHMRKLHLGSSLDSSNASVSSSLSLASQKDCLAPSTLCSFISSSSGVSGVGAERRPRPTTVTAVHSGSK
Protocol: as §1

[37] = molecular target: T37, BRSK1 (Homo sapiens, UniProt Q8TDC3)
T37 construct: purchased Reaction Biology Corp
T37 sequence (Q8TDC3 whole entry): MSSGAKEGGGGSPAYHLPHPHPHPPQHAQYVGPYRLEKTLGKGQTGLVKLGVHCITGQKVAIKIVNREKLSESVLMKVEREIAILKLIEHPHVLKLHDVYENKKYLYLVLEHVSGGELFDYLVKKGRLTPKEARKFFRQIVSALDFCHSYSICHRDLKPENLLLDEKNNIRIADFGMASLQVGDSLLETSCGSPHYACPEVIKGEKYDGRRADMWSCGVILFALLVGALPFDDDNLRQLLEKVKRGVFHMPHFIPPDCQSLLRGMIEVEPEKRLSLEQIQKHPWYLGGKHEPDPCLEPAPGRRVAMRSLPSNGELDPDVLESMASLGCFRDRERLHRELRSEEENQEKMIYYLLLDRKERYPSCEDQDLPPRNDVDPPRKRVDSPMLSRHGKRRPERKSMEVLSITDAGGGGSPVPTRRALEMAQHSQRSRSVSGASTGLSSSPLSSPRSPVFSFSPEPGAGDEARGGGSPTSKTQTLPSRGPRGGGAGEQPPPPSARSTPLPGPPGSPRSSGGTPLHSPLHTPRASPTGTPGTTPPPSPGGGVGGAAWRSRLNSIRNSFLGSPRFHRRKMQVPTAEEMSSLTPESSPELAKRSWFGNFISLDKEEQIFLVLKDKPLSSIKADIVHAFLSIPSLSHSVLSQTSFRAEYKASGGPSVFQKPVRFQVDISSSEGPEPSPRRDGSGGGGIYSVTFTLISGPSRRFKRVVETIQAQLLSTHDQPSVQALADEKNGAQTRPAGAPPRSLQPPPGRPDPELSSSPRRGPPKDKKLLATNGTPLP
Protocol: as §1

[38] = molecular target: T38, GRK6 (Homo sapiens, UniProt P43250)
T38 construct: purchased Reaction Biology Corp
Protocol: as §1

[39] = molecular target: T39, PRKCH (Homo sapiens, UniProt P24723)
T39 construct: purchased Reaction Biology Corp
Protocol: as §1

[40] = molecular target: T40, NEK1 (Homo sapiens, UniProt Q96PY6)
T40 construct: purchased Reaction Biology Corp
Protocol: as §1

[41] = molecular target: T41, FMS (Homo sapiens, UniProt P07333)
T41 construct: purchased Reaction Biology Corp
Protocol: as §1

[42] = molecular target: T42, FGFR1 (Homo sapiens, UniProt P11362)
T42 construct: purchased Reaction Biology Corp
Protocol: as §1

[43] = molecular target: T43, CLK2 (Homo sapiens, UniProt P49760)
T43 construct: purchased Reaction Biology Corp
Protocol: as §1

[44] = molecular target: T44, IKK-beta (Homo sapiens, UniProt O14920)
T44 construct: purchased Reaction Biology Corp
Protocol: as §1

CCn1cnc2c(NCc3ccc(-c4ccccn4)nc3)nc(-c3ccc(N)nc3)nc21 [Compound 30d, N-([2,2′-Bipyridin]-5-ylmethyl)-2-(6-aminopyridin-3-yl)-9-ethyl-9H-purin-6-amine]
remaining activity at 10 µM [1]: 94.1%
remaining activity at 10 µM [2]: 118%
remaining activity at 10 µM [3]: 94.8%
remaining activity at 10 µM [4]: 84.2%
remaining activity at 10 µM [5]: 82.5%
inhibition at 10 µM [6]: > 95%
remaining activity at 10 µM [6]: 0.8%
remaining activity at 10 µM [7]: 79.2%
remaining activity at 10 µM [8]: 101%
remaining activity at 10 µM [9]: 55%
remaining activity at 10 µM [10]: 44.2%
remaining activity at 10 µM [11]: 57.6%
remaining activity at 10 µM [12]: 76.3%
remaining activity at 10 µM [13]: 14.2%
remaining activity at 10 µM [14]: 176%
remaining activity at 10 µM [15]: 24.8%
remaining activity at 10 µM [16]: 96.6%
remaining activity at 10 µM [17]: 96.8%
remaining activity at 10 µM [18]: 83.8%
remaining activity at 10 µM [19]: 100%
remaining activity at 10 µM [20]: 62.3%
remaining activity at 10 µM [21]: 66%
remaining activity at 10 µM [22]: 86.6%
remaining activity at 10 µM [23]: 69.4%
remaining activity at 10 µM [24]: 102%
remaining activity at 10 µM [25]: 34.9%
remaining activity at 10 µM [26]: 81.6%
remaining activity at 10 µM [27]: 52.4%
remaining activity at 10 µM [28]: 34.8%
remaining activity at 10 µM [29]: 70.3%
remaining activity at 10 µM [30]: 97.9%
remaining activity at 10 µM [31]: 29.8%
remaining activity at 10 µM [32]: 99.1%
remaining activity at 10 µM [33]: 10.6%
remaining activity at 10 µM [34]: 102%
inhibition at 10 µM [35]: > 95%
remaining activity at 10 µM [35]: 4.1%
remaining activity at 10 µM [36]: 58%
remaining activity at 10 µM [37]: 92.8%
remaining activity at 10 µM [38]: 80.6%
remaining activity at 10 µM [39]: 87.9%
remaining activity at 10 µM [40]: 92.3%
remaining activity at 10 µM [41]: 35.4%
remaining activity at 10 µM [42]: 28.8%
remaining activity at 10 µM [43]: 11.7%
remaining activity at 10 µM [44]: 83.7%
